Measurements: patent publication US9006139B2, “Active compound combinations” (Bayer Intellectual Property GmbH, priority 2009, dated 2015)

What was measured:
Assay type in all cases: in vivo
Fusarium graminearum = conditions: Table L; 62.5 ppm a.i.
Botrytis cinerea = assay: Botrytis test (beans)/protective; conditions: Botrytis cinerea, 48 h, Table F, test 3, read-out: Efficacy in % found
Experimental: (§1) Solvent: 24.5 parts by weight of acetone
(§2) • 24.5 parts by weight of dimethylacetamide Emulsifier: 1 part by weight of alkylaryl polyglycol ether
To produce a suitable preparation of active compound, 1 part by weight of active compound is mixed with the stated amounts of solvent and emulsifier, and the concentrate is diluted with water to the desired concentration. To test for protective activity, young plants are sprayed with the preparation of active compound. After the spray coating has dried on, 2 small pieces of agar covered with growth of Botrytis cinerea are placed on each leaf. The inoculated plants are placed in a darkened chamber at 20° C. and a relative atmospheric humidity of 100%. 2 days after the inoculation, the size of the lesions on the leaves is evaluated. 0% means an efficacy which corresponds to that of the control, while an efficacy of 100% means that no disease is observed.

Puccinia triticina = assay: Puccinia triticina-test (wheat)/preventive; conditions: Table M; 62.5 ppm a.i.
Experimental: (§3) Solvent: 49 parts by weight of n,n-dimethylacetamid
(§4) Emulsifier: 1 part by weight of alkylaryl polyglycol ether
To produce a suitable preparation of active compound, 1 part by weight of active compound or active compound combination is mixed with the stated amounts of solvent and emulsifier, and the concentrate is diluted with water to the desired concentration. To test for preventive activity, young plants are sprayed with the preparation of active compound or active compound combination at the stated rate of application. After the spray coating has been dried, the plants are sprayed with a spore suspension of Puccinia triticina. The plants remain for 48 hours in an incubation cabinet at approximately 20° C. and a relative atmospheric humidity of approximately 100%. The plants are placed in the greenhouse at a temperature of approximately 20° C. and a relative atmospheric humidity of approximately 80%. The test is evaluated 8 days after the inoculation. 0% means an efficacy which corresponds to that of the untreated control, while an efficacy of 100% means that no disease is observed.

Alternaria solani = assay: Alternaria test (tomatoes)/protective; conditions: Table E, test 2, 2.5 ppm a.i.; for pest or weed control at 2.5 ppm: Alternaria solani, 72 h, read-out: Efficacy in % found
Experimental: as §1, §2
To produce a suitable preparation of active compound, 1 part by weight of active compound is mixed with the stated amounts of solvent and emulsifier, and the concentrate is diluted with water to the desired concentration. To test for protective activity, young plants are sprayed with the preparation of active compound at the stated rate of application. After the spray coating has dried on, the plants are inoculated with an aqueous spore suspension of Alternaria solani. The plants are then placed in an incubation cabinet at approximately 20° C. and a relative atmospheric humidity of 100%. The test is evaluated 3 days after the inoculation. 0% means an efficacy which corresponds to that of the control while an efficacy of 100% means that no disease is observed.

[1] = system: Blumeria graminis fsp. tritici; assay: Blumeria test (wheat)/preventive; conditions: Table G; 62.5 ppm a.i.
Experimental: as §3, §4
To produce a suitable preparation of active compound, 1 part by weight of active compound or active compound combination is mixed with the stated amounts of solvent and emulsifier, and the concentrate is diluted with water to the desired concentration. To test for preventive activity, young plants are sprayed with the preparation of active compound or active compound combination at the stated rate of application. After the spray coating has been dried, the plants are dusted with spores of Blumeria graminis fsp. tritici. The plants are placed in the greenhouse at a temperature of approximately 18° C. and a relative atmospheric humidity of approximately 80% to promote the development of mildew pustules. The test is evaluated 7 days after the inoculation. 0% means an efficacy which corresponds to that of the untreated control, while an efficacy of 100% means that no disease is observed.

Sphaerotheca fuliginea = assay: Sphaerotheca test (cucumbers)/protective; conditions: Table C, test 4; 5 ppm a.i.
Experimental: as §1, §2
To produce a suitable preparation of active compound, 1 part by weight of active compound is mixed with the stated amounts of solvent and emulsifier, and the concentrate is diluted with water to the desired concentration. To test for protect activity, young plants are sprayed with the preparation of active compound at the stated rate of application. After the spray coating has dried on, the plants are inoculated with an aqueous spore suspension of Sphaerotheca fuliginea. The plants are then placed in a greenhouse at approximately 23° C. and a relative atmospheric humidity of approximately 70%. The test is evaluated 7 days after the inoculation. 0% means an efficacy which corresponds to that of the control, while an efficacy of 100% means that no disease is observed.

CC1(C)CCC(Cc2ccc(Cl)cc2)C1(O)Cn1cncn1 (stereo not shown) [1.30, metconazole]
Efficacy in % found (Fusarium graminearum): 0%

CC(C)CC(C)c1sccc1NC(=O)c1cn(C)nc1C(F)(F)F (stereo not shown) [(2.20), penthiopyrad]
pest or weed control at 2.5 ppm (Botrytis cinerea; 2.5 ppm a.i.): 65% | Efficacy in % found (Puccinia triticina): 70% | pest or weed control at 2.5 ppm (Alternaria solani): 50%

CNC(=O)/C(=N/OC)c1ccccc1Oc1ccccc1 [(3.10), metominostrobin]
Efficacy in % found [1]: 13% | pest or weed control at 50 ppm (Botrytis cinerea; 50 ppm a.i.): 55% | pest or weed control at 2.5 ppm (Alternaria solani): 15%

CO/C=C(/C(=O)OC)c1ccccc1COc1cccc(C(F)(F)F)n1 [(3.12), picoxystrobin]
Efficacy in % found (Puccinia triticina): 80% | Efficacy in % found (Alternaria solani): 60% | Efficacy in % found (Sphaerotheca fuliginea): 62%
